Where “and” joins values, the source holds several entries; their conditions need not be identical. Equal values may be shown once.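 Exposure lasted 48 hours, with cells grown in 96-well plates and compounds tested at five concentrations. At the GI50, growth is halved. TGI is the concentration that stops growth completely.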
How the values were obtained:
Assay in all cases: NCI tumour cell line growth inhibition, 48 h
HOP-92 NSCLC = system: HOP-92 NSCLC
SF-268 CNS = system: SF-268 CNS
KM12 colon = system: KM12 colon
SW-620 colon = system: SW-620 colon
A498 renal = system: A498 renal
SN12C renal = system: SN12C renal
OVCAR-8 ovarian = system: OVCAR-8 ovarian
EKVX NSCLC = system: EKVX NSCLC
SF-295 CNS = system: SF-295 CNS
SK-MEL-28 melanoma = system: SK-MEL-28 melanoma

SMILES	GI50 (HOP-92 NSCLC) [nM]	TGI (HOP-92 NSCLC)	GI50 (SF-268 CNS) [µM]	TGI (SF-268 CNS) [µM]	GI50 (KM12 colon) [µM]	TGI (KM12 colon) [µM]	GI50 (SW-620 colon) [µM]	TGI (SW-620 colon)	GI50 (A498 renal) [µM]	TGI (A498 renal)	GI50 (SN12C renal) [µM]	TGI (SN12C renal) [µM]	GI50 (OVCAR-8 ovarian) [µM]	TGI (OVCAR-8 ovarian)	GI50 (EKVX NSCLC)	TGI (EKVX NSCLC) [µM]	GI50 (SF-295 CNS) [µM]	TGI (SF-295 CNS)	GI50 (SK-MEL-28 melanoma) [µM]	TGI (SK-MEL-28 melanoma) [µM]
O=C(Nc1ccc(Cl)c(Cl)c1)NS(=O)(=O)c1cnccc1Oc1ccc(F)cc1	2770	8.47 µM	4.48	> 100	3.75	16.7	3.01	> 100 µM	> 100	> 100 µM	3.38	15.4	4.82	> 100 µM	2.68 µM	44.4	1.65	4.8 µM		
Cc1cc(I)cc(CN(C)CCCN2CCCC2)c1O	15800	59.1 µM	17.2	49.2	20.3	46	15.9	35.4 µM	14.8	33.6 µM	46.1	> 100	45.3	> 100 µM	38.4 µM	> 100	13.7	28.4 µM	15.3	29.9
O=[N+]([O-])c1ccc(Sc2c3ccccc3nc3cc(Cl)ccc23)cc1		> 100 µM	> 100	> 100	> 100	> 100	> 100	> 100 µM	> 100	> 100 µM	> 100	> 100	> 100	> 100 µM	> 100 µM	> 100	> 100	> 100 µM	> 100	> 100
Oc1ccccc1-c1nn(CNc2ccccc2Cl)c(=S)o1	16400	66.2 µM	> 100	> 100	> 100	> 100	41.9	> 100 µM	> 100	> 100 µM	78.2	> 100	> 100	> 100 µM	> 100 µM	> 100	65.2	> 100 µM		
COC(=O)C1(C)Cc2cc(OC(C)=O)c(OC(C)=O)cc2N1 (centres undefined)	2190	8.69 µM	16.1	52.6	20.2	51.6	8.83	28.7 µM	37.8	> 90.7 µM	17	> 81.8	14.4	70.2 µM	15.7 µM	49	67.5	> 100 µM	13.8	32.3
O=C(O)[C@H](c1ccccc1)[C@@H](C(=O)O)c1ccccc1		> 100 µM		> 100		> 100		> 100 µM		> 100 µM		> 100		> 100 µM		> 100		> 100 µM		> 100
C=C1C(=O)O[C@H]2[C@H]1CC/C(COC(=O)NCC(C)c1ccc(CC(C)C)cc1)=C\CC[C@@]1(C)O[C@@H]21 (some centres undefined)	545	1.5 µM	1.82	6.59	3.53	8.24	0.751	1.79 µM	4.36	8.68 µM	1.06	4.14	1.94	6.87 µM	3.85 µM	7.95	4.44	8.69 µM	1.6	5.52
Cc1nc(C(N)=S)sc1C(=O)/C=C/c1c(O)ccc2ccccc12		> 100 µM		> 100		> 93.1		> 100 µM		> 100 µM		> 100		> 100 µM		> 100		> 100 µM		> 100
CC(C)(Oc1ccc(/C=C/C(=O)c2ccc(Cl)cc2)cc1)C(=O)Nc1c(Cl)cccc1Cl		91.5 µM		90.2		25		27.8 µM		32.4 µM		34.8		30.5 µM		> 100		49.6 µM		30.3
CCCCN(CC)CC(C(C)=O)c1c(O)c2ccccc2oc1=O (centres undefined)				> 100		> 100		> 100 µM		> 100 µM		> 100		> 100 µM		> 100		> 100 µM		> 100
O=C(O)c1ccc(C2C(=O)N[C@@H]3CCC[C@H]23)cc1 (some centres undefined)				> 100		> 100		> 100 µM		> 100 µM				> 100 µM		> 100		> 100 µM		> 100
CC(C)(C)C(=O)[CH-]C(=O)C(C)(C)C.CC(C)(C)C(=O)[CH-]C(=O)C(C)(C)C.CN(C)c1ccc([O-])cc1.CN(C)c1ccc([O-])cc1.[Ti+4]	72000	> 100 µM	> 100	> 100	64.8	> 100	> 100	> 100 µM			> 100	> 100	> 100	> 100 µM	> 100 µM	> 100	> 100	> 100 µM	> 100	> 100
C[N+](C)(C)CC1CCCCC1O (centres undefined)		> 100 µM		> 100				> 100 µM		> 100 µM		> 100		> 100 µM				> 100 µM		> 100
Cn1cc(C2=C(c3cn(C4CCN(Cc5ccccn5)CC4)c4ccccc34)C(=O)NC2=O)c2ccccc21	83200	> 100 µM	> 36.8	> 100	3.85	> 100	4.02	> 100 µM			> 100	> 100	6.23	> 100 µM			3.49	> 26.1 µM	6.07	> 100
C=C1C(O)CC[C@]2(C)C1C1OC(C)(C)O[C@]13CC(=O)C(C)=C([C@H]1OC(C)(C)OC12)C3(C)C (some centres undefined)				> 100		> 100		> 100 µM		> 100 µM		> 100		> 100 µM		> 100		> 100 µM		> 100
COc1ccc(C(=O)NCCN(C)C)c2nc3ccccc3nc12		> 27.4 µM				32.4		> 30.5 µM		16.3 µM		80.1		> 41.5 µM		33.2		> 36.1 µM		16.8
Cc1ccccc1NC(=O)C1C(=O)N(c2ccccc2C)C(=O)/C1=N\NC(N)=S (centres undefined)		> 100 µM		> 100		> 100		> 100 µM				> 100				> 100		> 100 µM		> 100
C(=N\Nc1nnn(Cc2ccccc2)n1)/c1ccccc1			8.28	> 89.3	0.905	> 100	1.73	> 100 µM	5.76	55.3 µM	9.46	> 100	6.72	> 100 µM	12.3 µM	> 100	3.44	56.3 µM	8.47	> 100
CCCCN(CCCC)C(=O)/C(CC(=O)c1cccc2ccccc12)=N\NC(=O)c1cc2ccccc2cc1O		56.8 µM		70.9		> 100		> 100 µM				52.6		> 100 µM		50.9		92.7 µM		> 100

SMILES	GI50 (HOP-92 NSCLC) [nM]	TGI (HOP-92 NSCLC)	GI50 (SF-268 CNS) [µM]	TGI (SF-268 CNS) [µM]	GI50 (KM12 colon) [µM]	TGI (KM12 colon) [µM]	GI50 (SW-620 colon) [µM]	TGI (SW-620 colon)	GI50 (A498 renal) [µM]	TGI (A498 renal)	GI50 (SN12C renal) [µM]	TGI (SN12C renal) [µM]	GI50 (OVCAR-8 ovarian) [µM]	TGI (OVCAR-8 ovarian)	GI50 (EKVX NSCLC)	TGI (EKVX NSCLC) [µM]	GI50 (SF-295 CNS) [µM]	TGI (SF-295 CNS)	GI50 (SK-MEL-28 melanoma) [µM]	TGI (SK-MEL-28 melanoma) [µM]
CC(=O)OC(Cn1cncn1)(Cn1cncn1)c1ccc(Cl)cc1Cl		> 100 µM		> 100		> 100		> 100 µM		> 100 µM				> 100 µM		> 100		> 100 µM		> 100
Cn1c2c(c3ccccc31)CCN(CCN1CCN(c3cccc(Cl)c3)CC1)C2=O		77.1 µM		> 100				> 100 µM		> 100 µM		> 100		> 100 µM		> 100				> 100
Cc1c2ccccc2cc2ccc3oc([N+](=O)[O-])cc3c12		> 100 µM		> 100		> 100		> 100 µM		> 100 µM		> 100		> 100 µM		> 100		> 100 µM		
CN(C)C(=S)/N=c1\ssc(=S)n1Cc1ccncc1				> 100		16.8		48.8 µM		73.8 µM		> 100		68.9 µM		> 100		83.8 µM		> 100
O=C(N/N=C/c1cccc(F)c1)c1ccncc1		> 100 µM		> 100		> 100		> 100 µM		> 100 µM		> 100						> 100 µM		> 100
C/C(=N/NC(=O)C[N+](C)(C)C)C(CN(C)C)C(=O)Nc1ccccc1 (centres undefined)				> 100		> 100		> 100 µM		> 100 µM		> 100		> 100 µM		> 100		> 100 µM		> 100
CCOC(=O)NC(=O)c1cn(CCN2CCN(C(=O)CCCCCCCCCCC(=O)N3CCN(CCn4cc(C(=O)NC(=O)OCC)c(=O)[nH]c4=O)CC3)CC2)c(=O)[nH]c1=O		> 100 µM		> 100		> 100		> 100 µM		> 100 µM		> 100		> 100 µM				> 100 µM		> 100
CC(C)(C)c1cc(C=C(C#N)C#N)cc(C(C)(C)C)c1O	212	0.768 µM and 0.139 µM	0.475	> 241			0.462	30.9 µM and 45.4 µM	0.158	3.83 µM and 1.76 µM	0.513	4.6	0.355	23.6 µM and 48.1 µM	0.518 µM and 0.825 µM	46.3	0.284	1.23 µM and 3.4 µM	0.778	43.6
CCOC(=O)C(NC(=O)c1nc[nH]c1[N+](=O)[O-])C(C)C (centres undefined)				> 100		> 100		> 100 µM		> 100 µM		> 100		> 100 µM		> 100		> 100 µM		> 100
COc1ccc(C(=O)c2ccc([As]=O)cc2)cc1 (centres undefined)	130	0.262 µM	0.0348	0.136	0.0801	0.219	0.0313	0.111 µM	0.164	0.305 µM	0.0418	0.199	0.0617	0.203 µM	0.132 µM	0.293	0.146	0.285 µM		
COC(=O)C1(C(=O)OC)CC(=O)c2cc3c(cc2-c2c(cc(OC)c(OC)c2OC)C1)OCO3		167 µM		> 211		> 211		> 211 µM				> 211		> 211 µM		> 211		> 211 µM		> 211
CSC1=Nc2ccccc2N=C(c2ccc(Cl)cc2)C1				> 100		> 100		> 100 µM				> 100		> 100 µM		> 100		> 100 µM		> 100
O=C(/C=C/c1ccccc1)CC(=O)CCC(=O)Nc1ccc(Cl)cc1				> 100		> 100		> 100 µM		> 100 µM		> 100		> 100 µM		> 100		> 100 µM		
N/N=C1\C(=O)N(CCc2ccccc2)C(=O)C1C(=O)NCCc1ccccc1 (centres undefined)		> 100 µM		> 100		> 100		> 100 µM				> 100				> 100		> 100 µM		> 100
N#Cc1ccc(NC(=O)C(CC(=O)OCc2ccccc2)NC(=O)OCc2ccccc2)cc1 (centres undefined)	> 100000	> 100 µM			> 100	> 100	> 100	> 100 µM			> 100	> 100	> 100	> 100 µM	> 100 µM	> 100	> 100	> 100 µM	> 100	> 100
CN(C)CCNC(=O)Cn1ccc(=O)c2c([N+](=O)[O-])cccc21				> 100		> 100		> 100 µM		> 100 µM		> 100		> 100 µM		> 100		> 100 µM		> 100
C=CC(OCC)(OCC)OCC		> 100 µM		> 100		> 100				> 100 µM		> 100		> 100 µM		> 100		> 100 µM		> 100
COCCOCCOC1=CC(=O)c2c(O)ccc(O)c2C1=O		3.71 µM		6.93		3.3		1.72 µM		5.08 µM		3.8				7.54		3.23 µM		2.92
